In patent US9102835B2, “Methods of using dyes in association with nucleic acid staining or detection and associated technology” (Biotium, Inc., priority 2005, dated 2015):
Entries after “also recorded” stand apart in the source; their conditions may differ.

Legend:
[1] = tested on: 1 kb Plus DNA Latter in agarose gel; assay: Post-DNA gel staining
Procedure: Serial two-fold dilutions of 1 kb Plus DNA Latter from Invitrogen Co. (Carlsbad, Calif.) were made and the resulting DNA samples were loaded onto an agarose gel in four lanes from left to right with a loading of 200 ng, 100 ng, 50 ng, and 25 ng per lane, respectively. The DNA samples were electrophoretically separated in 1×TBE buffer using a standard protocol. The nucleic acid sample was loaded onto the gel from in four columns from left to right with a loading of 200 ng, 100 ng, 50 ng, and 25 ng per lane, respectively, and electrophoretically separated in 1×TBE buffer using a standard protocol. A stock solution of a Dye No. 20 of Table 1 in DMF at about 12 mM concentration was prepared. […] The agarose gel was submerged in the staining solution for approximately 30 minutes to stain the gel. The resulting gel was then viewed using a UV transilluminator with 254 nm excitation.
A similar procedure was followed to prepare post gel staining solutions of Dye No. 29 of Table 1, except that Dye No. 29 was used in place of Dye No. 20 and at various conditions, as now described. […] Identical DNA samples were prepared, loaded onto three separate agarose gels, and separated via standard gel electrophoreses, in the manner described above. Each of the three separate gels was then stained by immersion in a different one of the resulting gels for about 30 minutes. […]

[2] = tested on: 1 kb Plus DNA Latter in agarose gel; assay: Pre-cast DNA gel staining; conditions: 1.2 μM in TBE versus EB 1.3 μM; 300 nm UV
Procedure: An agarose gel solution (1% agarose) was prepared following a standard protocol (J. Roskams et al., Lab Ref: A Handbook of Recipes, Reagents, and Other Reference Tools for Use at the Bench, Cold Spring Harbor Laboratory Press, Cold Spring Harbor, N.Y., 2002). A stock solution of a Dye No. 35 (ET-27) of Table 1 in DMF at 12 mM concentration was prepared. An aliquot of the stock solution of dye was added to the gel solution, while it was hot, resulting in an effective working concentration of the dye of about 1.2 μM. The resulting solution was thoroughly mixed by swirling. The resulting gel solution was poured onto a gel slab to cast the gel. Serial two-fold dilutions of 1 kb Plus DNA Latter from Invitrogen Co. (Carlsbad, Calif.) were made and the resulting DNA samples were loaded onto the gel in four lanes from left to right with a loading of 200 ng, 100 ng, 50 ng, and 25 ng per lane, respectively. The DNA samples were electrophoretically separated in 1×TBE buffer using a standard protocol. The resulting gel was then viewed using a UV transilluminator with 300 nm excitation. The same procedure was followed using a stock solution of EB at about 0.5 μg/mL (or 1.3 μM) in DMF in place of the stock solution of Dye No. 35 of Table 1.
It should be noted that other dyes described herein may be prepared and employed in the manner described in this Example 49, or a similar manner.

[3] = tested on: Salmonella typhimurium bacteria, strain TA98; assay: Mutagenicity assay, Muta-ChromoPlate test kit (based on the Ames Test, bacterial reverse mutation); conditions: for Mutagenicity relative to the negative control: in the absence of S9 extract; for Positive wells: with S9 extract (rat liver); for Positive wells / Positive wells, Exp 1 / Positive wells, Exp 2: positive wells out of 36, TA98; for Positive wells, Exp 1 / Positive wells, Exp 2: without S9 extract
Description: The test kit is based on the Ames Test, a bacterial reverse mutation test. The test employs a mutant strain, or several strains, of Salmonella typhimurium bacteria, carrying mutation(s) in the operon coding for histidine biosynthesis. When the bacteria are exposed to mutagenic agents under certain conditions, reverse mutation from amino acid (histidine) auxotrophy to prototrophy occurs. […] S9 extract is a rat liver extract that comprises various metabolic enzymes. The tests associated with the presence of S9 extract were undertaken to give information on the potential genotoxicity of the metabolized dyes. […] Each single test was carried out using 36 wells and the number of positive wells out of each 36 wells was taken as an indicator of the relative mutagenicity levels of the dye under the test conditions. As a negative control, bacteria were also incubated in the absence of a dye.
Mutagenicity assays were carried out using a Muta-ChromoPlate test kit from EBPI (Brampton, Ontario, Canada). […] A solution without a dye (zero dose level) was assayed in the absence and presence of S9 extract, as a control or negative control. S9 extract is a rat liver extract that comprises various metabolic enzymes. The tests associated with the presence of S9 extract were undertaken to provide information on the potential genotoxicity of the metabolized dyes. […] Each single test was carried out using 36 wells and the number of positive wells out of each 36 wells was taken as an indicator of the relative mutagenicity levels of the dye under the test conditions.

[4] = Hydrolytic, thermal and storage stability in water, electrophoresis buffers and pre-cast gels; format: physicochemical
[5] = Stability in TBE buffer, optical density at absorption maximum over 24 hours; format: physicochemical; conditions: 1.2 μM in 1×TBE buffer, room temperature, monitored at 500 nm
Procedure: SYBR Gold 10,000× in DMSO from Molecular Probes, Inc. (Eugene, Oreg.) was diluted to 1× working concentration, as recommended by the manufacturer, in 1×TBE buffer. A stock solution of Dye No. 35 of Table 1 in DMSO (12 mM) was diluted to 1.2 μM in 1×TBE buffer. The optical density associated with each of the solutions was monitored at the absorption maximum of the dye (488 nm for SYBR Gold and 500 nm for Dye No. 35) over the course of a 24-hour period at room temperature.

[6] = tested on: Salmonella typhimurium bacteria, strain TA98; conditions: cited from earlier work
[7] = cited from earlier work
[8] = pre-cast gel prepared with the dye

Structure (SMILES) | Mutagenicity relative to the negative control [3] | Positive wells ([3]; 0.25 nmole) | Positive wells ([3]; 2.5 nmoles) | Positive wells ([3]; 25 nmoles) | Positive wells, Exp 1 ([3]; 0.25 nmole) | Positive wells, Exp 2 ([3]; 0.25 nmole) | Positive wells, Exp 1 ([3]; 2.5 nmoles) | Positive wells, Exp 2 ([3]; 2.5 nmoles) | Positive wells, Exp 1 ([3]; 25 nmoles) | Positive wells, Exp 2 ([3]; 25 nmoles) | also measured
C[n+]1c(C=C2C=CN(CCCCCC(=O)NCCCOCCOCCOCCCNC(=O)CCCCCN3C=CC(=Cc4sc5ccccc5[n+]4C)c4ccccc43)c3ccccc32)sc2ccccc21 [Dye No. 29, TOTO-13] |  |  |  |  |  |  |  |  |  |  | Sensitivity in post-DNA gel staining versus SYBR Safe and SYBR Green I ([1]; dye 3.6 μM, SYBR dyes 1× in TBE, 200-25 ng DNA per lane, 254-nm UV transilluminator): substantially more sensitive than SYBR Safe and is as sensitive as SYBR Green I
Nc1ccc2c(c1)c(-c1ccccc1)[n+](CCCCCC(=O)NCCCOCCOCCOCCCNC(=O)CCCCC[n+]1c(-c3ccccc3)c3cc(N)ccc3c3ccc(N)cc31)c1cc(N)ccc21 [Dye No. 35, ET-27] | very weak mutagenicity | 0 | 9 | 0 | 2 | 0 | 1 | 3 | 1 | 3 | Sensitivity with respect to low level DNA, relative to EB [2]: more sensitive with respect to low level DNA; Sensitivity with respect to shorter DNA fragments, relative to EB [2]: more sensitive with respect to shorter DNA fragments; Toxicity and mutagenicity, overall statement ([3]; comparison of Dye No. 35 with EB): relatively low in toxicity and mutagenicity; also recorded: may be less mutagenic than EB; Time heated in a microwave oven without decomposition ([4]; dye in TBE buffer): 10 min; Storage time of pre-cast gel without loss of performance [4, 8]: 3 months; Time stable in an electrophoresis buffer, such as TBE buffer ([4]; room temperature): 6 months; Absorbance over the 24-hour period [5]: relatively constant
CC[n+]1c(-c2ccccc2)c2cc(N)ccc2c2ccc(N)cc21 [EB, ethidium bromide, reference compound] | very weak mutagenicity | 22 | 17 | 16 | 0 | 0 | 0 | 3 | 0 | 3 | Mutagenicity ([3]; in the presence of S9 extract): significantly greater mutagenicity than Dye No. 35; Frame shift mutagenicity in Ames Test (known) [6]: known frame shift mutagen
CCCN(CCCN(C)C)c1cc(/C=C2/Sc3ccccc3N2C)c2ccccc2[n+]1-c1ccccc1 [SYBR Green I] |  |  |  |  |  |  |  |  |  |  | DNA band brightness in post-DNA gel staining ([1]; staining solution in 1×TBE that lacked NaCl): relatively weaker or less bright DNA bands overall; Hydrolytic stability ([7]; aqueous solution, particularly buffers having a pH of 7 or more): hydrolytically unstable; Time within which pre-cast gel is used before losing utility [7, 8]: 24 h
